From ChEMBL document CHEMBL1201862, “PubChem BioAssay data set” (2004)
The source made the active and inactive calls.

Legend:
[1] = cytotoxicity in HEK-293T cells, dose response, cytotoxicity control for TCR NF-kB inhibitor project, luminescence, T-cell screen hits (AID 489026); type: functional, cell-based;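 further: cells exposed to compound about 14 hours before the viability readout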
[2] = test system: INS1; test: beta cell apoptosis inhibitors, cytokine rescue, dose response, luminescence, retest (AID 449756); type: functional, cell-based; conditions: Rattus norvegicus;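 further: cell death triggered by IL-1 beta plus TNF-alpha plus IFN-gamma mixture; protective hits raise ATP signal compared with cytokine alone wells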
[3] = Shn3 3'UTR reporter inhibitors, dose response, cell-based, Clone20 osteoblasts, firefly luciferase, cherry-picked (AID 624132); type: functional;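 further: firefly luciferase luminescence from reporter carrying the Shn3 3'UTR in osteoblasts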
[4] = HepG2 cell cytotoxicity, dose response, cytotoxicity control for Shn3 inhibitor project, CellTiter-Glo, cherry-picked (AID 624134); type: functional, cell-based
[5] = control 3'UTR Renilla luciferase suppression, dose response, counter-screen for Shn3 inhibitor project, cell-based, Clone20-Shn3RL, cherry-picked (AID 624133); type: functional
[6] = test system: Streptococcus sp. 'group A'; test: growth inhibition of control SK(-) GAS strain, dose response, counter-screen for streptokinase expression inhibitor project, luminescence, kanamycin, BacTiterGlo, confirmation (AID 1900); type: functional, organism-based
[7] = molecular target: T1, Streptokinase A (Streptococcus pyogenes serotype M1, UniProt P10520); test: S. pyogenes streptokinase expression inhibitors, potency, dose response, plasminogen activation absorbance, OD405 (AID 1914); type: functional, Streptococcus pyogenes M1 GAS;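 further: secreted streptokinase activity via plasminogen activation per viability signal from cell pellet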
T1 sequence (P10520 whole entry): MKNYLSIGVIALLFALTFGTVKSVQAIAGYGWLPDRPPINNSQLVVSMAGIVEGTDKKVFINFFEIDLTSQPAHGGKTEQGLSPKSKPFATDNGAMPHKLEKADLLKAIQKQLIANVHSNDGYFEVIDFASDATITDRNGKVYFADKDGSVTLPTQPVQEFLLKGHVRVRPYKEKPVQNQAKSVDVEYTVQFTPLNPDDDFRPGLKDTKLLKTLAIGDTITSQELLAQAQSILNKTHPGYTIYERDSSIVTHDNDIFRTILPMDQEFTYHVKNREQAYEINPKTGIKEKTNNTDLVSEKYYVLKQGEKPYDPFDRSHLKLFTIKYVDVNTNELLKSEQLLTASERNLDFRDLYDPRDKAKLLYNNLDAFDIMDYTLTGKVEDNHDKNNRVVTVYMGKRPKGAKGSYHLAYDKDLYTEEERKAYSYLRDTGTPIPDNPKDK

[8] = test system: Streptococcus; test: Group A Streptococcus viability loss, dose response, counter-screen for streptokinase expression inhibitor project, luminescence, BacTiterGlo (AID 1915); type: functional, organism-based;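 further: potency for reduction of bacterial viability or growth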
[9] = THP-1 cell cytotoxicity, dose response, cytotoxicity control for Vif-APOBEC3G degradation inhibitor project, THP-1 cells (AID 1117359); type: functional; conditions: Human immunodeficiency virus 1, THP-1
[10] = molecular target: T2, DNA repair protein RAD52 homolog (Homo sapiens, UniProt P43351); type: functional, biochemical
T2 sequence (P43351 whole entry): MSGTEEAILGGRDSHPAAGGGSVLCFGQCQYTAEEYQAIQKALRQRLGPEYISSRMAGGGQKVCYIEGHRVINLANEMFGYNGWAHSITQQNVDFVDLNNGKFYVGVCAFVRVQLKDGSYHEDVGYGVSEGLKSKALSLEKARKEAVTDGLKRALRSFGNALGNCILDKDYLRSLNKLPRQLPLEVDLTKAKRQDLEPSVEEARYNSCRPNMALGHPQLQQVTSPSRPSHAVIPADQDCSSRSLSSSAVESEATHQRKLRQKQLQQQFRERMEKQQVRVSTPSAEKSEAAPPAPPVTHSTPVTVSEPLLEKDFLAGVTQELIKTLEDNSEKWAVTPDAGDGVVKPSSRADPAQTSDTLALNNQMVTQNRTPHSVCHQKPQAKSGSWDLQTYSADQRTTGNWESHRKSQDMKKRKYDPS

[11] = test system: Escherichia coli; test: microbe, parasite or virus in culture
[12] = test system: P388/ADR; test: cells; type: functional; conditions: Mus musculus
[13] = test system: SN12K1; test: cells; type: functional; conditions: Homo sapiens
[14] = test system: P388; test: cells; type: functional; conditions: Mus musculus
[15] = inhibitors of HIV Env-driven cell fusion, dose response, cherry-pick (AID 652057); type: functional, cell-based
[16] = ZM109 Env clade C HIV-1 fusion inhibitors, dose response, HeLa effector, CEM target cells, luciferase, cherry-pick (AID 652058); type: functional, cell-based
[17] = inhibitors of clade B AD8 Env fusion, dose response, cell-based, cherry-pick (AID 652062); type: functional;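 further: luciferase signal from cell-cell fusion driven by HIV-1 clade B AD8 Env; potency is for inhibitors of fusion seen as a drop in luminescence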
[18] = test system: BJ; test: cytotoxicity toward BJ-TERT fibroblasts, dose response, cell-based, RAS-independent, luminescence (AID 1933); type: functional; conditions: Homo sapiens
[19] = test system: BJ; test: cells; type: functional, cell-based; conditions: Homo sapiens
[20] = test system: BJ; test: cytotoxicity toward BJ-TERT-LT-ST fibroblasts, dose response, cell-based, RAS-independent, luminescence (AID 1935); type: functional; conditions: Homo sapiens;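 further: BJ fibroblasts immortalized with TERT plus LT and ST oncogenes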
[21] = cytotoxicity toward DRD oncogenic fibroblasts, dose response, cell-based, non-viral oncogenic, luminescence (AID 1934); type: functional; conditions: Homo sapiens
[22] = Luminescence Cell-Based Dose Retest to Confirm Inhibitors of Cancer Stem Cells. [Related pubchem assays (depositor defined):AID2717, AID2721]; type: functional; conditions: Homo sapiens
[23] = molecular target: Cytochrome P450 3A4 (Homo sapiens, UniProt P08684); conditions: Potency;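 further: confirmatory qHTS run detecting inhibitors and substrates of CYP3A4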
Sequence of Cytochrome P450 3A4 (P08684 whole entry): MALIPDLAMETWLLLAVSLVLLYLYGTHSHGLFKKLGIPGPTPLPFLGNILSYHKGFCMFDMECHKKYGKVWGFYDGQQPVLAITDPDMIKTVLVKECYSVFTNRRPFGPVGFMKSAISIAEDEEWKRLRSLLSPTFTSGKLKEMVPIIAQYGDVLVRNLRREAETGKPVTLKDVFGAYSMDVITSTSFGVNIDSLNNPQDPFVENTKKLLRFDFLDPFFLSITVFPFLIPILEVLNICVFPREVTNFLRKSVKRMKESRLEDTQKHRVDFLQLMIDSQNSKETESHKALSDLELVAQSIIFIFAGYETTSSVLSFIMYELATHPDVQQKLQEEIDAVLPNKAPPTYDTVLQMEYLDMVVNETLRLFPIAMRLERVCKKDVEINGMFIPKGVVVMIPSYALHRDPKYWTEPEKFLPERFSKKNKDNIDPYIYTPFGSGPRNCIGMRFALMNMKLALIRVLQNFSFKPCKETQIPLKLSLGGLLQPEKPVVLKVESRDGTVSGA

O=C(NNc1ccnc2cc(Cl)ccc12)C1CCCCC1
IC50 [1]: > 80 µM (inactive) | AC50 [2]: 1.42 µM (active) | AC50 [3]: < 0.26 µM (active) | AC50 [4]: 0.409 µM (active) | AC50 [5]: 1.39 µM (active)

Cc1nn(-c2ccccc2)c2sc(C(=O)N3CCc4ccccc4C3)cc12
EC50 [6]: 4.55 µM (active) | EC50 [7]: > 150 µM (not active) | EC50 [8]: 14.6 µM (active) | CC50 [9]: > 40 µM (active)

NCCCC[C@H]1CN=C(N)N1CCC12CC3CC(CC(C3)C1)C2
AC50 [10]: 23.3 µM (active)

CC(=O)c1cc(CN2CCN(C3CCCCC3)C(CCO)C2)cs1 (stereo not drawn)
AC50 [11]: 27.7 µM (active)

COc1ccc(O)c(C#N)c1C#N.COc1ccc(OC)c(C#N)c1C#N
GI50 [12]: > 100 µM (inactive) | GI50 [13]: > 100 µM (inactive) | GI50 [14]: > 100 µM (inactive)

COc1ccc(NC(=O)Nc2ccc3c(c2)CC(=O)N([C@@H](C)CO)C[C@H](C)[C@H](CN(C)S(=O)(=O)c2cccs2)O3)cc1
AC50 [15]: 12 µM (active) | AC50 [16]: 13.2 µM (active) | AC50 [17]: 27.1 µM (active)

COc1cccc(S(=O)(=O)N(C)C[C@H]2Oc3cc(C#CCC(C)C)ccc3S(=O)(=O)N([C@@H](C)CO)C[C@H]2C)c1
AC50 [15]: 25.1 µM (active) | AC50 [16]: 10.6 µM (active) | AC50 [17]: 34.2 µM (active)

Cc1ccsc1/C=N/NC(=O)c1cc(-c2ccncc2)nc2ccccc12
EC50 [18]: 2.93 µM (inconclusive) | EC50 [19]: 2.88 µM (active) | EC50 [20]: 4.22 µM (inconclusive) | EC50 [21]: 2.94 µM (active) | AC50 [22]: 0.168 µM (active) | IC50 [1]: 47.1 µM (inactive)

CC(C)(C)NCC(O)CON=C1c2ccccc2-c2ccccc21 (stereo not drawn)
AC50 [10]: 20.1 µM (active)

Nc1ccc(Cl)cc1N
AC50 [23]: 7.94 µM (inconclusive)

CCCCS(=N)(=O)CCC(N)C(=O)O (stereo not drawn) [BUTHIONINE SULFOXIMINE]
AC50 [23]: 20 µM (inconclusive)

CC(=O)OC1CCC23CC1(C)CCC2C(C)(C)CC3OC(C)=O (stereo not drawn) [CLOVANEDIOL DIACETATE]
AC50 [23]: 15.8 µM (inconclusive)

CCCCC/C=C\C/C=C\CCCCCCCC(=O)O [LINOLEIC ACID]
AC50 [23]: 31.6 µM (inconclusive)

Clc1cccc(C(Cl)(Cl)Cl)n1 [NITRAPYRIN]
AC50 [23]: 12.6 µM (inconclusive)

C[C@@H]1CN(c2c(F)c(F)c3c(=O)c(C(=O)O)cn(C4CC4)c3c2F)C[C@H](C)N1 [ORBIFLOXACIN]
AC50 [11]: 0.657 µM (active)
